The results in this text go back to patent US9415049B2, “Heteroaryl compounds and uses thereof” (Celgene Avilomics Research, Inc., priority 2013, dated 2016).

Assay [1] concerns the target T1, BTK (Homo sapiens, UniProt Q06187).
T1 construct: endogenous in cells; host or cells: Ramos cells
In words: Btk target site occupancy, covalent probe ELISA in Ramos cells. Format: cell-based. The conditions noted are these: 1 hour at 37° C., 0.09-200 nM, read-out: Ramos cell EC50 (nM), BTK occupancy. The protocol: A covalent probe shown below was used in an ELISA assay to determine occupancy of the target BTK by certain compounds according to the invention.
Ramos cells were incubated in serum-free RPMI medium for 1 hour (˜2×10^6 cells/mL in 2 mL). Test compounds were diluted from a 10 mM DMSO stock solution, to achieve a final concentration of 0.09, 0.27, 0.82, 2.47, 7.42, 22.2, 66, and 200 nM. Cells were then incubated for 1 hour at 37° C. Following incubation, cells were spun at 1100 RPM for 5 minutes then washed in 200 μL of chilled PBS. Following the wash, cells were spun at 1100 RPM for 5 minutes. The supernatant was aspirated and then cells were resuspended in lysis buffer containing protease and phosphatase inhibitors. This was followed by centrifugation for 15 minutes at 14000 RPM at 4° C. Supernatant was transferred to a fresh tube. Lysates were stored at −80° C. until assayed.
Samples were thawed and mixed well by vortexing for 5 seconds. 60 μL of each sample was added into the 96-well mixing plate followed by addition of 60 μL of covalent probe solution (2 μM probe in PBS+0.05% Tween-20+1% BSA; 1:2 sample dilution) to each well containing sample. An adhesive cover was then placed on the plate followed by mixing of the plate on a shaker for 1 hour at room temperature. The streptavidin plate was pre-washed 3 times with PBS+0.05% Tween-20. 50 μL of the standards, QCs, and samples were then transferred from the mixing plate to the streptavidin plate. The plate was covered with an adhesive cover and mixed while shaking for 1 hour at room temperature. A 1:1000 dilution of the primary anti-Btk antibody (catalog #611116, Becton Dickinson; Franklin Lakes, N.J.) in PBS+0.05% Tween-20+0.5% BSA was prepared. The streptavidin plate was washed 3 times with PBS+0.05% Tween-20 and 50 μL/well of diluted anti-Btk antibody was then pipetted into the streptavidin plate. The plate was covered and incubated for 1 hour at room temperature. A 1:5000 dilution of secondary antibody (goat anti-mouse-HRP, catalog #62-6520, Zymed-Invitrogen; Carlsbad, Calif.) in PBS+0.05% Tween-20+0.5% BSA was prepared. The streptavidin plate was again washed 3 times with PBS+0.05% Tween-20 and 50 μL/well of diluted secondary antibody was pipetted into the streptavidin plate. The plate was covered and incubated for 1 hour at room temperature. The streptavidin plate was again washed 3 times with PBS+0.05% Tween-20 followed by the addition of 100 μL of TMB solution to each well. The plate was then read on a Synergy^2 plate reader at OD 650 nm until the OD maximum reached 1.0. This was followed by the addition of 100 μL of the Stop Solution. The plate was then read at OD 450 nm. A human recombinant Btk protein standard curve (11.7-3000 pg/μL) was plotted using a 4 parameter curve fit in GenS software (Version 1.05.11; Biotek; Winooski, Vt.;). The sample ODs were read against the standard curve to calculate free protein amounts.
Data were generated as ODs on an ELISA plate reader (Synergy^2, BioTek; Winooski, Vt.). Uninhibited Btk captured by the biotinylated covalent probe was quantitated and normalized to untreated control samples. Results were expressed as % Btk occupancy. EC50 values were generated using a 4 parameter curve fit analysis in GraphPad Prism version 5.0.

Assay [2] has as its target human recombinant full-length Btk enzyme (Homo sapiens, UniProt Q06187). In words: Covalent bonding assay, intact protein MALDI mass spectrometry. Format: binding. Also on record: The full-length recombinant human Btk protein; purchased Invitrogen Lot #619547Q (catalogue number not given). The conditions noted are these: percentage of total protein covalently modified after one hour incubation, 10-fold excess of compound, room temperature. The protocol: The following example describes testing certain compounds to determine whether they covalently bind to BTK. The full-length recombinant human Btk protein (Lot #619547Q; 0.35 mg/mL) was obtained from Invitrogen (Carlsbad, Calif.). Btk protein was diluted 2:3 in phosphate-buffered saline and stock concentration (10 mM) of compound was diluted 1:115 in 50% DMSO.
For all compounds, 1 μL of diluted compound was added to 5 μL of diluted protein. These mixtures were then incubated for 60 minutes at a 10-fold excess of compound to protein under room temperature (˜24° C.) conditions.
At the end of the incubation, 5 μL aliquots of the samples were diluted with 15 μL of 0.2% TFA prior to micro C4 ZipTipping® directly onto the MALDI target plate using sinapinic acid as the desorption matrix (10 mg/mL in 0.2% TFA:Acetonitrile 50:50). Samples were immediately analyzed on an ABSciex 4800 MALDI TOF-TOF mass spectrometer.
For intact protein mass measurement, the mass spectrometer was set in linear mode using a pulsed extraction setting of 81,500. Bovine serum albumin (BSA; Sigma, St Louis, Mo.) was used as the standard to calibrate the instrument. These values correspond to the percentage of total protein covalently modified by the tested compound after one hour incubation.

human recombinant full-length Btk enzyme, sequence (Q06187 whole entry): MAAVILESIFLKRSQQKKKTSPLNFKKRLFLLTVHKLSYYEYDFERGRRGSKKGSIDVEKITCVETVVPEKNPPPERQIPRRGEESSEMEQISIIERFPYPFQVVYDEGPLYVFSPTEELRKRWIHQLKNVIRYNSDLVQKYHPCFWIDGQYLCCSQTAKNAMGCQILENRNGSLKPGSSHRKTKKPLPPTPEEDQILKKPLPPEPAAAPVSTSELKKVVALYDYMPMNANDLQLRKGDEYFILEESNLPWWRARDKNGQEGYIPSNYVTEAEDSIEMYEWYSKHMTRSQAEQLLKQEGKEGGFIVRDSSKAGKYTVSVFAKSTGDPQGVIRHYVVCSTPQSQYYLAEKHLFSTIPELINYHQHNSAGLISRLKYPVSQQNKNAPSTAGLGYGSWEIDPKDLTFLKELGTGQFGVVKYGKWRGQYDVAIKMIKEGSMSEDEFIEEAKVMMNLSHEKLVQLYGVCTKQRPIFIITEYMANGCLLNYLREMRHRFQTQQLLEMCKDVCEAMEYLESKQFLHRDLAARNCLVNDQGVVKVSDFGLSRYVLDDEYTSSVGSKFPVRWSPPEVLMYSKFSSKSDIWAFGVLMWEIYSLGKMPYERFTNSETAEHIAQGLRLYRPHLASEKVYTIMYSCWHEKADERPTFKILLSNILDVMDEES
T1 sequence (Q06187 whole entry): as above

As to `C=CC(=O)Nc1cccc(Nc2nc(Nc3ccc(OCCO)cc3)ncc2F)c1` [Compound I-1, N-(3-((5-fluoro-2-((4-(2-hydroxyethoxy)phenyl)amino)pyrimidin-4-yl)amino)phenyl)acrylamide], in assay [1], the concentration giving a half-maximal response (EC50) (in general, the concentration at which the effect is half-maximal) is < 50 nM. For the same compound, the MS % modification result in assay [2] is reported as “B (31-69% modification)”.
For `C=CC(=O)Nc1cccc(Nc2nc(Nc3ccc(O)cc3)ncc2F)c1` [Compound I-3, N-(3-((5-fluoro-2-((4-hydroxyphenyl)amino)pyrimidin-4-yl)amino)phenyl)acrylamide], the concentration giving a half-maximal response (EC50) in assay [1] was < 50 nM. In assay [2], the MS % modification entry is reported as “A (>70% modification)”.
